The source of these data is patent US9260473B2, “Bivalent multifunctional ligands targeting Aβ oligomers as treatment for Alzheimer's disease” (Virginia Commonwealth University, priority 2010, dated 2016).

In one data set the test system is SH-SY5Y cells. The data set is described as follows: Cytotoxicity assay in differentiated SH-SY5Y cells treated with AβOs. Type of data set: cell-based, human. As to conditions: AβOs 1 μM, 48 hrs, all of the tested concentrations.
For another data set, the system named is MC65 cells. Kind of data set: Cytotoxicity assay in MC65 cells (MTS, +TC/−TC). In kind it is cell-based, human. The following applies: 72 hrs. From the text:
Protective effects of 14 on AβOs-induced cytotoxicity in MC65 cells and differentiated human neuroblastoma SH-SY5Y cells. […] To further verify whether 14 can protect cells from extracellular AβOs-induced cytotoxicity, all trans-retinoic acid differentiated human SH-SY5Y cells were employed. […] This may further indicate that while both 1 and 14 can bind to AβOs, CM/LR anchorage of 14 can increase its accessibility to intracellular target AβOs. Since CM/LR are crucial for many aspects of cell signaling and functions, 14 was further evaluated for its potential cytotoxicity in mouse spleen and natural killer (NK) cells.
Cytotoxicity assay in MC65 cells. MC65 cells were seeded in 96-well plates (4×10^4 cells/well) at 37° C., 5% CO2 for 24 hrs. The medium was removed and washed with PBS twice. Opti-MEM and test compounds were added under +TC and −TC conditions. The plates were incubated at 37° C., 5% CO2 for 72 hrs, then 20 uL CellTiter 96 AQueous One Solution (Promega, Madison, Wis.) were added to each well and the plates were incubated at 37° C., 5% CO2 for 2-4 hrs. The plates were read at 490 nm using FlexStation III plate reader (Molecular Devices). The blank with only test compounds in Opti-MEM was set up as background control for all of the tested concentrations. Each data point was averaged from six replicates and the experiments were independently repeated at least three times.

The test system of the next data set is AβOs. The data set is described as follows: Western blot assay of AβOs formation in MC65 cells (6E10 antibody). Type of data set: cell-based, human. As to conditions: 10 μM, 24 hrs after removal of TC. The text has this:
Inhibition of AβOs production by designed BMAOIs. […] The whole cell assay is a composite of not only Aβ oligomerization inhibition but also permeability, stability and other factors will validate the accessibility and function of our BMAOIs. MC65 is a human neuroblastoma cell line that conditionally expresses C99, the C-terminus fragment of APP using tetracycline (TC) as transgene suppressor.^38 Upon removal of TC, these cells can produce intracellular Aβ aggregates including small AβOs. […] All BMAOIs were first evaluated at a single concentration of 10 μM. Candidate compounds with inhibitory activities at this concentration were further evaluated in a dose-dependent manner in the following assays. […]
Western blot assay. […] Pellet was lysed by sonication in 1× lysis buffer (62.5 mM Tris base, pH6.8, 2% SDS, 50 mM DTT, 10% glycerol, 0.1% bromphenol blue, and […] each chymostatin, leupeptin, aprotinin, pepstatin, and soybean trypsin inhibitor) and protein level was determined using Coomassie Protein Assay Reagent (Pierce, Rockford, Ill.). […]
(A western blot detects proteins with antibodies after separation by electrophoresis.)

A further data set is described as follows: in vitro. As to conditions: human, Caco-2. How it is done:
Assessment of permeability and P-glycoprotein using Caco-2 cell model. […] To test whether 14 has the potential to reach the brain, we determined its permeability and transport directionality using the Caco-2 model.^48 Although the Caco-2 cell monolayer model is derived from the colon rather than the brain, this model expresses efflux transporters such as P-glycoprotein which are also expressed at the BBB.
Caco-2 permeability assay. Caco-2 cells (ATCC, Manassas, Va.) were cultured in high-glucose DMEM supplemented with 10% FBS and used between passages 30-50. Caco-2 cells were plated on 12-well polyester transwell inserts ([…] pore size) (Coming #3460) at a density of 80,000 cells/cm^2 and grown to 100% confluence (21 days). Filters were rinsed in Hank's balanced salt solution (HBSS) and test compounds (10 μM) were added to either the apical (0.5 mL) or basolateral (1.5 mL) side and incubated at 37° C. with shaking (100 rpm). Samples (200 μL) were removed at 30, 60, and 120 minutes with replacement of an equal volume of the appropriate buffer containing or lacking the compounds. Samples were stored at −20° C. until analysis. After 120 minutes, lucifer yellow was added to the donor chamber, with additional sampling as above at 10, 20, and 30 minutes. Lucifer yellow was analyzed by fluorescence (excitation 450 nm, emission 528 nm) in a Synergy 2 microplate reader. […] Buffer samples (200 μL) were mixed with acetonitrile (100 μL) and acetic acid (2 μL), vortexed and centrifuged at 4° C. for 5 minutes at 12,000 ref. Supernatants (100 μL) were injected onto an Alltech Alltima HP C18 4.6×100 mm 3 μm column and eluted with 38% acetonitrile, 62% aqueous (1% acetic acid in water) at 1.0 mL/min. To improve sensitivity over UV detection, fluorescence (Waters 2475) at the excitation/emission wavelengths of 443/533 and 274/305 (nm) for 1 and 14, respectively, was also detected. Permeability was determined according to Fick's Law. Efflux transport activity was defined as a permeability directional ratio (efflux ratio) ≧2.

Protocol for SH-SY5Y cells: Cytotoxicity assay in differentiated SH-SY5Y cells. SH-SY5Y cells were plated at 10,000 cells/well in type 1 collagen coated 96-well plates (Invitrogen) and were differentiated in Opti-MEM supplemented with 2% B-27 (Invitrogen) and 10 μM all-trans-retinoic acid for 7 days. The medium was removed and replaced with fresh maintenance medium. Freshly prepared Aβ42 oligomers in Ham's F-12 medium (1 μM) was added to cells for 48 hrs at 37° C. with or without test compounds. After treatment, 20 uL CellTiter 96 AQueous One Solution (Promega, Madison, Wis.) were added to each well and the plates were incubated at 37° C., 5% CO2 for 2-4 hrs. The plates were read at 490 nm in FlexStation III plate reader (Molecular Devices). Each data point was averaged from six replicates and the experiments were independently repeated at least three times.

Regarding `COc1cc(C=CC(=O)C(Cc2cn(CCCCCCNC(=O)CCNC(=O)CCNC(=O)COC3CCC4(C)C(=CCC5C4CCC4(C)C(C(C)CCCC(C)C)CCC54)C3)nn2)C(=O)C=Cc2ccc(O)c(OC)c2)ccc1O` (centres unmarked) [BMAOI 14], the “protection of SH-SY5Y cell viability from AβOs” value in the data set on SH-SY5Y cells was “completely restored the cell viability”. In addition, the “toxic effects on MC65 cell viability in the presence of TC” value with MC65 cells (+TC, tested concentrations, MTS) is “no toxic effects”. Moreover, the “rescue of MC65 cell viability upon removal of TC” value in the data set on MC65 cells (−TC, 16 μM) was “nearly full rescue”. Further, the “protective effects on MC65 cell viability upon removal of TC” value with MC65 cells (−TC, MTS) is “protected MC65 cell survival in a dose-dependent manner”. Besides, the “inhibition of the formation of AβOs (Western blot)” value with AβOs is given as “significantly inhibited”. In the data set “in vitro”, the Papp A→B at 120 min, 10 µM was found to be 7.1 ×10⁻⁶ cm/s; the Papp B→A at 120 min, 10 µM was 4.7 ×10⁻⁶ cm/s; the efflux ratio at 120 min, 10 µM is 0.63.

One may read the Papp A→B as how fast a substance crosses the layer from the apical side. Usually Papp B→A stands for the apparent permeability from the basolateral to the apical side of a cell layer. By efflux ratio is commonly meant a quotient of directional permeabilities that is used to spot active efflux.
